Measurements as given in US7468385B2, “Triazoles as oxytocin antagonists” (Laboratoires Serono SA, priority 2001, dated 2008).

Legend:
[1] = target: T1, hOT receptor (Homo sapiens, UniProt P30559); experiment: Inhibition of oxytocin mediated Ca2+-mobilization by FLIPR in HEK293EBNA cells expressing the hOT receptor; format: cell-based; details: OT 40 nM, fluo-4 FLIPR, read-out: Inhibition of Ca2+ mobilisation, hOT-R IC50
T1 construct: expressed in transfected cells; host or cells: HEK293EBNA
T1 sequence (P30559 1-389): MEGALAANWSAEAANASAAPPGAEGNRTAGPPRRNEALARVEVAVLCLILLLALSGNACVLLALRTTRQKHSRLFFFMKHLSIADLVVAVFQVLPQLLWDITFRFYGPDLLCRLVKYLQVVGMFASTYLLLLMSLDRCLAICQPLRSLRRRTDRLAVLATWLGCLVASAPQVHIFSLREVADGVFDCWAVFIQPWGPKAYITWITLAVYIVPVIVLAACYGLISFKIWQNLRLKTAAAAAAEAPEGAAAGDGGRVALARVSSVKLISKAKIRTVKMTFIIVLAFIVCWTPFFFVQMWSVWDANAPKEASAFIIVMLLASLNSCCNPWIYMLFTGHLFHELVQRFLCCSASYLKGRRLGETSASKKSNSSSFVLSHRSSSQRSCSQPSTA
Source text: c) Functional Assay No. 1: Inhibition of Oxytocin Mediated Ca^2+-mobilization by FLIPR® (Fluorimetric Imaging Plate Reader)
The action of OT on the OT-receptor triggers a complex cascade of events in the cell which leads to an increase in the intra-cytoplasmic Ca^2+ concentration. This increase in Ca^2+ concentration results from both calcium release from the sarcoplasmic reticulum (calcium stores) into the cytoplasm and from calcium influx from the extracellular space through Ca^2+ channels. This Ca^2+ mobilization into the cytoplasm triggers the contractile machinery of the myometrial cells which leads to uterine contractions (4 and 19).
This assay allows the measurement of the inhibition of OT/OT-R mediated calcium mobilization by test compounds of formula (1).
FLIPR® is a fluorimetric imaging device using a laser (Argon-ion laser) for simultaneous illumination and reading (cooled CCD camera) of each well of a 96-well-plate, thus enabling rapid measurements on a large number of samples.
Preparing the plates: FLIPR-plates were pre-coated with PLL (Poly-L-Lysine) 10 μg/ml+0.1% gelatine to attach HEK293EBNA cells (Human Embryonic Kidney cells expressing the hOT receptor) and incubated for 30 min up to 2 days at 37° C. The cells were plated out into 96-well-plates (60000 cells/well).
Labelling with fluo-4: 50 μg of fluo-4 (Ca2+ sensitive fluorescent dye) were dissolved in 20 μl pluronic acid (20% in DMSO). The dissolved fluo-4 was then diluted in 10 ml DMEM ([…])-F12 culture medium. […]
The relative fluorescence of Fluo (λex=488 nm, λem=590 nm) is then measured by the FLIPR in presence or absence of compounds of formula (I). The fluorescence of the marker being sensitive to the amount of Ca^2+, the Ca^2+ movements can be detected. Then, it can be determined the ability of compounds of formula (I) to antagonize the oxytocin-induced intracellular Ca^2+-mobilization mediated by the oxytocin receptor.
The activities of the triazole derivatives according to formula I were assessed using the above described in vitro biological assay. […]

[2] = target: T2, human Oxytocin (hOT) receptor (Homo sapiens, UniProt P30559); experiment: In vitro competition binding assay on hOT receptor with scintillation proximity assay ([125I]-OVTA); details: inhibition of 125I-OVTA binding; membranes from HEK293EBNA cells expressing the hOT receptor; read-out: Binding Affinity hOT-R (Ki)
T2 construct: expressed in transfected cells; host or cells: HEK293EBNA (membranes)
T2 sequence (P30559 1-389): T1 sequence (P30559 1-389)
Protocol: a) In vitro Competition Binding Assay on hOT Receptor with Scintillation Proximity Assay (18).
This assay allows to determine the affinity of the test compounds for the human Oxytocin (hOT) receptor. Membranes from HEK293EBNA (cells expressing the hOT receptor) were suspended in buffer containing 50 mM Tris-HCl, pH 7.4, 5 mM MgCl2 and 0.1% BSA (w/v). The membranes ([…]) were mixed with 0.1 mg SPA bead coated with wheat-germ aglutinin (WGA-PVT-Polyethylene Imine beads from Amersham) and […] of the radiolabelled [^125I]-OVTA (OVTA being Omithin Vasoactive, an analogue of OT for competitive binding experiments). Non-specific binding was determined in the presence of 1 μM Oxytocin. The total assay volume was 100 μL. The plates (Corning® NBS plate) were incubated at room temperature for 30 min and counted on a Mibrobeta® plate scintillation counter. Competitive binding was performed in presence of compounds of formula (1) at the following concentrations: 30 μM, 10 μM, 1 μM, 300 nM, 100 nM 10 nM, 1 nM, 100 pM, 10 pM. The competitive binding data were analysed using the iterative, nonlinear, curve-fitting program, “Prism” (GraphPad Software, Inc).
The ability of triazole derivatives of formula (I) to inhibit the binding of ^125I-OVTA to the OT-receptor was assessed using the above described in vitro biological assay. Representative values for some example compounds are given in Table 3 where the binding affinity of the compounds is expressed by the inhibition constant (Ki; μM). From these values, it can be derived that said test compounds according to formula I do show a significant binding to the oxytocin receptor.

[3] = system: oxytocin-induced uterine contractions; experiment: In vivo model for inhibition of oxytocin-induced uterine contractions; parameters: species or system rat; details: dose 10 mg/kg, anaesthetised DES-treated non-pregnant female rats
Protocol: f) In vivo Model for Inhibition of Uterine Contractions
The assay evaluates the biological effect of tested compounds in an in vivo model of preterm labor, premature birth.
Non-pregnant Charles River CD (SD) BR female rats (9-10 weeks old, 200-250 g) were treated at 18 and 24 hours before the experiment with 250 μg/kg, i.p. diethylstilbestrol (DES). For the assay, the animal was anaesthetised with urethane (1.75 g/kg, i.p.) and placed on a homeothermic operating table. The trachea was isolated and cannulated with a suitable polyethylene (PE) tubing. A midline incision at the hypogastrium level was made and one uterine horn exposed, its cephalic end cannulated with a PE240 tubing and, after filling the internal cavity with 0.2 ml of sterile physiological saline, connected to a “Gemini” amplifying/recording system via a P23ID Gould Statham pressure transducer. […]
The contractile response of the uterus to oxytocin was quantified by measuring the intra-uterine pressure and the number of contractions. The effect of the reference and test compounds was evaluated by comparing pre- and post-treatment pressure values. […]
The activities of the triazole derivatives claimed in the Formula I can be assessed using the above described in vivo biological assay. […]

IC50 [1]	Ki [2]	Structure (SMILES)	% Reduction of Uterine Contraction [3]
26 nM	45 nM	COc1cccc(-n2c(CCC(=O)NCc3ccccc3OC)nnc2SCc2cccc(Cl)c2)c1 [Example 1, 3-[5-[(3-chlorobenzyl)sulfanyl]-4-(3-methoxyphenyl)-4H-1,2,4-triazol-3-yl]-N-(2-methoxybenzyl)propanamide]	16.9 ± 5.1%
	134 nM	COc1ccccc1CNC(=O)CCc1nnc(SCc2cccc(C)c2)n1-c1cccc(Cl)c1 [Example 3, 3-{4-(3-chlorophenyl)-5-[(3-methylbenzyl)sulfanyl]-4H-1,2,4-triazol-3-yl}-N-(2-methoxybenzyl)propanamide]	
	326 nM	COCCCn1c(CCC(=O)NCc2ccccc2OC)nnc1SCc1cccc(Cl)c1 [Example 4, 3-[5-[(3-chlorobenzyl)sulfanyl]-4-(3-methoxypropyl)-4H-1,2,4-triazol-3-yl]-N-(2-methoxybenzyl)propanamide]	
	127 nM	COc1ccccc1CNC(=O)CCc1nnc(SCc2cccc(F)c2)n1-c1ccc(C)cc1 [Example 5, 3-[5-[(3-fluorobenzyl)sulfanyl]-4-(4-methylphenyl)-4H-1,2,4-triazol-3-yl]-N-(2-methoxybenzyl)propanamide]	
	246 nM	COc1ccccc1CNC(=O)CCc1nnc(SCc2cccc(C)c2)n1Cc1ccc(C)cc1 [Example 6, N-(2-methoxybenzyl)-3-{4-(4-methylbenzyl)-5-[(3-methylbenzyl)sulfanyl]-4H-1,2,4-triazol-3-yl}propanamide]	
	229 nM	COc1ccccc1CNC(=O)CCc1nnc(SCc2cccc(Cl)c2)n1-c1cccc(C)c1 [Example 8, 3-[5-[(3-chlorobenzyl)sulfanyl]-4-(3-methylphenyl)-4H-1,2,4-triazol-3-yl]-N-(2-methoxybenzyl)propanamide]	
	205 nM	COc1ccccc1CNC(=O)CCc1nnc(SCc2ccccc2)n1-c1ccc(C)cc1 [Example 9, 3-[5-(benzylsulfanyl)-4-(4-methylphenyl)-4H-1,2,4-triazol-3-yl]-N-(2-methoxybenzyl)propanamide]	
	329 nM	COc1ccccc1CNC(=O)CCc1nnc(SCc2ccc(F)cc2)n1-c1cccc(Cl)c1 [Example 11, 3-{4-(3-chlorophenyl)-5-[(4-fluorobenzyl)sulfanyl]-4H-1,2,4-triazol-3-yl}-N-(2-methoxybenzyl)propanamide]	
	439 nM	COc1ccccc1CNC(=O)CCc1nnc(SCc2ccccc2)n1-c1cccc(Cl)c1 [Example 12, 3-[5-(benzylsulfanyl)-4-(3-chlorophenyl)-4H-1,2,4-triazol-3-yl]-N-(2-methoxybenzyl)propanamide]	
	245 nM	CCCCNC(=O)CCc1nnc(SCc2cccc(Cl)c2)n1-c1cccc(Cl)c1 [Example 15, N-butyl-3-[5-[(3-chlorobenzyl)sulfanyl]-4-(3-chlorophenyl)-4H-1,2,4-triazol-3-yl]propanamide]	
	197 nM	COc1cccc(-n2c(CCC(=O)NCc3ccccc3OC)nnc2SCc2cccc(C)c2)c1 [Example 16, N-(2-methoxybenzyl)-3-{4-(3-methoxyphenyl)-5-[(3-methylbenzyl)sulfanyl]-4H-1,2,4-triazol-3-yl}propanamide]	
486 nM	2550 nM	COc1ccccc1CNC(=O)CCCc1nnc(SCc2cccc(Cl)c2)n1-c1ccccc1 [Example 137, 4-{5-[(3-chlorobenzyl)sulfanyl]-4-phenyl-4H-1,2,4-triazol-3-yl}-N-(2-methoxybenzyl)butanamide]	
	481 nM	COc1ccccc1CNC(=O)CCCCc1nnc(SCc2cccc(Cl)c2)n1-c1cccc(Cl)c1 [Example 184, 5-[5-[(3-chlorobenzyl)sulfanyl]-4-(3-chlorophenyl)-4H-1,2,4-triazol-3-yl]-N-(2-methoxybenzyl)pentanamide]	
58 nM	603 nM	COc1ccccc1CNC(=O)CCCCc1nnc(SCc2cccc(Cl)c2)n1-c1ccccc1 [Example 185, 5-{5-[(3-chlorobenzyl)sulfanyl]-4-phenyl-4H-1,2,4-triazol-3-yl}-N-(2-methoxybenzyl)pentanamide]	
	515 nM	COc1ccccc1CNC(=O)CCCCc1nnc(SCc2cccc(C)c2)n1CCc1ccccc1 [Example 189, N-(2-methoxybenzyl)-5-[5-[(3-methylbenzyl)sulfanyl]-4-(2-phenylethyl)-4H-1,2,4-triazol-3-yl]pentanamide]	
